Several values for one entry are separate records, joined by “and”; a condition that tells them apart may be missing. Equal entries are not always repeated. ± gives the expanded uncertainty stated by the source.
Settings: Liquid, Ebulliometric method (Recirculating still)

Row | Structure (SMILES) | vapor or sublimation pressure (364.51 K) | vapor or sublimation pressure (364.5 K) [kPa] | vapor or sublimation pressure (364.52 K) [kPa]
1 | CO [methanol] | 267.5 ± 1.8 kPa | – | –
2 | CCC(C)O (configuration not stated) [butan-2-ol] | 74.1 ± 1.4 kPa | – | –
3 | CC(C)C [2-methylpropane] | 1686.4 ± 7.4 kPa and 1686.3 ± 7.4 kPa | 1685.6 ± 7.4 | 1686.3 ± 7.4
4 | CC(C)(C)O [2-methylpropan-2-ol] | – | 142.6 ± 1.5 | –
5 | CC(C)O [propan-2-ol] | 144.2 ± 1.5 kPa | – | –

Source: the NIST ThermoML archive (doi:10.1021/je800021r)
